{"source": "patent US12286632B2", "about": "“Rationally-designed synthetic peptide shuttle agents for delivering polypeptide cargos from an extracellular space to the cytosol and/or nucleus of a target eukaryotic cell, uses thereof, methods and kits relating to same” (Feldan Bio Inc., priority 2016, dated 2025)", "key": {"in vitro": {"assay": "in vitro", "conditions": "human, HeLa cells"}, "HeLa cells [1]": {"system": "HeLa cells", "assay": "Transfection plasmid surrogate assay for delivered CRISPR/Cas9-NLS complex (mCherry/GFP fluorescence)", "type": "cell-based, Human", "conditions": "shuttle 35 μM; 24 and 48 hours post-transduction", "text": "This assay enables one to visually identify cells that have been successfully delivered an active […]as9 complex. […] Transfection of the cells with the expression plasmid results in mCherry™ expression, but no GFP expression (FIG. 39B). […] Successful transduction of an active CRISPR/Cas9 complex results in the CRISPR/Cas9 complex cleaving the plasmid DNA at the STOP codon (FIG. 39C). In a fraction of the cells, random non-homologous DNA repair of the cleaved plasmid occurs and results in removal of the STOP codon, and thus GFP expression and fluorescence (FIG. 39E).\nOn Day 1 of the transfection plasmid surrogate assay, DNA plasmids for different experimental conditions (250 ng) are diluted in DMEM (50 μL) in separate sterile 1.5-mL tubes, vortexed and briefly centrifuged. In separate sterile 1.5-mL tubes, Fastfect™ transfection reagent was diluted in DMEM (50 μL) with no serum and no antibiotics at a ratio of 3:1 (3 μL of Fastfect™ transfection reagent for 1 μg of DNA) and then quickly vortexed and briefly centrifuged. The Fastfect™/DMEM mixture was then added to the DNA mix and quickly vortexed and briefly centrifuged. The Fastfect™/DMEM/DNA mixture is then incubated for 15-20 min at room temperature, before being added to the cells (100 μL per well). The cells are then incubated at 37° C. and 5% CO2 for 5 h. […]"}, "rat parietal cortex": {"system": "rat parietal cortex", "assay": "In vivo GFP-NLS delivery by stereotaxic injection, fluorescence microscopy of brain slices", "conditions": "shuttle 20 μM + GFP-NLS 20 μM, 5 μL injected over 10 min; sacrificed 2 h after surgery", "procedure": "In separate sterile 1.5-mL tubes, shuttle agent His-CM18-PTD4 was diluted in sterile distilled water at room temperature. […] One negative control was included for the experiment, which corresponds to the injection of the GFP-NLS alone.\nBilateral injections were performed in the parietal cortex of three rats. In the left parietal cortex (ipsilateral), a mix composed of the shuttle agent (20 μM) and the GFP-NLS (20 μM) was injected, and in the right parietal cortex (contralateral), only the GFP-NLS (20 μM) was injected as a negative control. For surgical procedures, […] were anesthetized with isoflurane. Then the animal was placed in a stereotaxic frame, and the skull surface was exposed. Two holes were drilled at the appropriate sites to allow bilateral infusion of the shuttle/cargo mix or GFP-NLS alone (20 μM) with 5-μL Hamilton syringe. Antero-posterior (AP), lateral (L), and dorso-ventral (DV) coordinates were taken relative to the bregma: (a) AP+0.48 mm, L±3 mm, V-5 mm; (b) AP-b 2 mm, L±1.3 mm, V-1.5 mm; (c) AP-2.6 mm, L 1.5 mm, V-1.5 mm. The infused volume of the shuttle/cargo mix or cargo alone was 5 μL per injection site and the injection was performed for 10 minutes. […]\nDorso-ventral rat brain slices were collected and analysed by fluorescence microscopy and results are shown in at 4× (FIG. 48A), 10× (FIG. 48C) and 20× (FIG. 48D) magnifications. […]"}, "CA46 cells": {"system": "CA46 cells", "assay": "GFP-NLS transduction in different adherent and suspension cells (flow cytometry, Pos cells % and viability %)", "type": "cell-based, Homo sapiens", "conditions": "Protocol C, 5 μM shuttle, 5 μM GFP-NLS, 15 seconds", "procedure": "The ability of the shuttle agent His-CM18-PTD4 to deliver GFP-NLS to the nuclei of different adherent and suspension cells using Protocols B (adherent cells) or C (suspension cells) as described in Example 9.1 was examined. The cell lines tested included: HeLa, Balb3T3, HEK 293T, CHO, NIH3T3, Myoblasts, Jurkat, THP-1, CA46, and HT2 cells, which were cultured as described in Example 1. GFP-NLS (5 μM; see Example 5.1) was co-incubated with 35 μM of His-CM18-PTD4 and exposed to adherent cells for 10 seconds (Protocol B), or was co-incubated with 5 μM of His-CM18-PTD4 and exposed to suspension cells for 15 seconds (Protocol C). […] “Pos cells (%)” is the mean percentages of all cells that emanate a GFP signal."}, "HeLa cells [2]": {"system": "HeLa cells", "assay": "GFP-NLS protein transduction assay (flow cytometry: Pos cells %, viability %, relative fluorescence intensity; microscopy)", "conditions": "for Relative fluorescence intensity (FL1-A) (n = 3): Table 10.3, Protocol C"}, "[3]": {"conditions": "HeLa, Protocol B, 35 μM shuttle, 5 μM GFP-NLS, 10 seconds"}, "[4]": {"conditions": "Table 10.3a, Protocol B, HeLa, shuttle 50 μM, GFP-NLS 5 μM, 10 seconds"}}}
{"smiles": "CC[C@H](C)[C@H](NC(=O)[C@H](CCCCN)NC(=O)[C@H](CCCCN)NC(=O)[C@H](Cc1ccccc1)NC(=O)[C@H](CC(C)C)NC(=O)[C@H](CCCCN)NC(=O)[C@H](Cc1c[nH]c2ccccc12)NC(=O)[C@H](CCCCN)NC(=O)[C@H](Cc1c[nH]cn1)NC(=O)[C@H](Cc1c[nH]cn1)NC(=O)[C@H](Cc1c[nH]cn1)NC(=O)[C@H](Cc1c[nH]cn1)NC(=O)[C@H](Cc1c[nH]cn1)NC(=O)[C@@H](N)Cc1c[nH]cn1)C(=O)NCC(=O)N[C@@H](C)C(=O)N[C@H](C(=O)N[C@@H](CC(C)C)C(=O)N[C@@H](CCCCN)C(=O)N[C@H](C(=O)N[C@@H](CC(C)C)C(=O)N[C@H](C(=O)N[C@H](C(=O)NCC(=O)N[C@@H](Cc1ccc(O)cc1)C(=O)N[C@@H](C)C(=O)N[C@@H](CCCNC(=N)N)C(=O)N[C@@H](C)C(=O)N[C@@H](C)C(=O)N[C@@H](C)C(=O)N[C@@H](CCCNC(=N)N)C(=O)N[C@@H](CCC(N)=O)C(=O)N[C@@H](C)C(=O)N[C@@H](CCCNC(=N)N)C(=O)N[C@@H](C)C(=O)O)[C@@H](C)O)[C@@H](C)O)C(C)C)C(C)C", "note": "[His-CM18-PTD4]", "values": [{"measurement": "viability", "setting": "in vitro", "result": "63.2 ± 4.07", "unit": "%"}, {"measurement": "GFP expression after CRISPR/Cas9-NLS cleavage of plasmid surrogate", "setting": "HeLa cells [1]", "result": "GFP fluorescence, the latter resulting from removal of the STOP codon by the transduced CRISPR/Cas9-NLS complex"}, {"measurement": "in vivo delivery of GFP-NLS to cell nuclei", "setting": "rat parietal cortex", "result": "delivery of the GFP-NLS in the nucleus of cells from the deeper layers of the parietal cortex (injection site) to the corpus callus and the dorsal level of the striatum (putamen)"}, {"measurement": "Cell viability (%) (±St. Dev.; n = 3)", "setting": "CA46 cells", "result": "71.6 ± 1.0", "unit": "%"}, {"measurement": "Mean % cells with GFP signal (±St. Dev.; n = 3)", "setting": "CA46 cells", "result": "24.4 ± 0.6", "unit": "%"}, {"measurement": "Cell viability (%) (±St. Dev.; n = 3)", "setting": "HeLa cells [2]; [3]", "result": "94.6 ± 0.4", "unit": "%"}, {"measurement": "Mean % cells with GFP signal (±St. Dev.; n = 3)", "setting": "HeLa cells [2]; [3]", "result": "72.3 ± 5.3", "unit": "%"}, {"measurement": "Mean % cells with GFP signal (±St. Dev.; n = 3)", "setting": "HeLa cells [2]; Table 9.1, Protocol A, HeLa, shuttle 10 μM, GFP-NLS 5 μM, 1 hour", "result": "25.4 ± 3.6", "unit": "%"}, {"measurement": "Mean % cells with GFP signal (±St. Dev.; n = 3)", "setting": "HeLa cells [2]; Table 9.1, Protocol B, HeLa, shuttle 35 μM, GFP-NLS 5 μM, 10 seconds", "result": "78.3 ± 5.3", "unit": "%"}, {"measurement": "Mean % cells with GFP signal (±St. Dev.; n = 3)", "setting": "HeLa cells [2]; Table 9.2, Protocol B, HeLa, shuttle 10 μM, GFP-NLS 5 μM, 10 seconds", "result": "25.3 ± 3.6", "unit": "%"}, {"measurement": "Mean % cells with GFP signal (±St. Dev.; n = 3)", "setting": "HeLa cells [2]; Table 9.2, Protocol B, HeLa, shuttle 25 μM, GFP-NLS 5 μM, 10 seconds", "result": "62.1 ± 6.1", "unit": "%"}, {"measurement": "Mean % cells with GFP signal (±St. Dev.; n = 3)", "setting": "HeLa cells [2]; Table 9.2, Protocol B, HeLa, shuttle 35 μM, GFP-NLS 5 μM, 10 seconds", "result": "77.7 ± 7.8", "unit": "%"}, {"measurement": "Mean % cells with GFP signal (±St. Dev.; n = 3)", "setting": "HeLa cells [2]; Table 9.2, Protocol B, HeLa, shuttle 50 μM, GFP-NLS 5 μM, 10 seconds", "result": "73.2 ± 5.2", "unit": "%"}, {"measurement": "Mean % cells with GFP signal (±St. Dev.; n = 3)", "setting": "HeLa cells [2]; Table 10.1, Protocol B, HeLa, shuttle 50 μM, GFP-NLS 5 μM, 10 seconds", "result": "68 ± 2.2", "unit": "%"}, {"measurement": "Mean % cells with GFP signal (±St. Dev.; n = 3)", "setting": "HeLa cells [2]; Table 10.2, Protocol B, HeLa, shuttle 10 μM, GFP-NLS 5 μM, incubation 1 min.", "result": "50.6 ± 3.5", "unit": "%"}, {"measurement": "Mean % cells with GFP signal (±St. Dev.; n = 3)", "setting": "HeLa cells [2]; Table 10.2, Protocol B, HeLa, shuttle 10 μM, GFP-NLS 5 μM, incubation 2 min.", "result": "74 ± 3.3", "unit": "%"}, {"measurement": "Mean % cells with GFP signal (±St. Dev.; n = 3)", "setting": "HeLa cells [2]; Table 10.2, Protocol B, HeLa, shuttle 10 μM, GFP-NLS 5 μM, incubation 5 min.", "result": "82.7 ± 5.0", "unit": "%"}, {"measurement": "Relative fluorescence intensity (FL1-A) (n = 3)", "setting": "HeLa cells [2]; HeLa, shuttle 10 μM, GFP-NLS 5 μM, incubation 1 min.", "result": "524 151"}, {"measurement": "Relative fluorescence intensity (FL1-A) (n = 3)", "setting": "HeLa cells [2]; HeLa, shuttle 10 μM, GFP-NLS 5 μM, incubation 2 min.", "result": "755 624"}, {"measurement": "Relative fluorescence intensity (FL1-A) (n = 3)", "setting": "HeLa cells [2]; HeLa, shuttle 10 μM, GFP-NLS 5 μM, incubation 5 min.", "result": "173 930"}, {"measurement": "Cell viability (%) (±St. Dev.; n = 3)", "setting": "HeLa cells [2]; [4]", "result": "92 ± 3.6", "unit": "%"}, {"measurement": "Mean % cells with GFP signal (±St. Dev.; n = 3)", "setting": "HeLa cells [2]; [4]", "result": "68 ± 2.2", "unit": "%"}, {"measurement": "Mean % cells with GFP signal (±St Dev.; n = 3)", "setting": "HeLa cells [2]; Table 10.3e, Protocol B, HeLa, shuttle 20 μM, GFP-NLS 5 μM, 1 minute", "result": "60.3 ± 3.2", "unit": "%"}, {"measurement": "GFP-NLS transduction efficiency", "setting": "HeLa cells [2]; peptide 20 μM, GFP-NLS 5 μM, 1 minute, Protocol B (Table 10.3e)", "result": 60, "unit": "%"}, {"measurement": "GFP-NLS delivery (microscopy, in words)", "setting": "HeLa cells [2]; shuttle 35 μM, GFP-NLS 5 μM, 10 seconds, Protocol B", "result": "successfully transduced and delivered to the nucleus and/or the cytosol"}, {"measurement": "time by which GFP-NLS is delivered to the nucleus", "setting": "HeLa cells [2]; shuttle 50 μM, GFP-NLS 5 μM, exposed 10 seconds, Protocol B, microscopy", "result": "≤ 2", "unit": "min"}]}
